From US20200360352A1, “USE OF RIFAMYCIN-NITROIMIDAZOLE COUPLING MOLECULE” (priority 2019, published 2020)
Values after ≈ are worked out from the molar mass of the structure shown. Like-named read-outs stand apart in the source and are kept apart here.

Key:
Format in all cases: cell-based
[1] = system: Mycobacterium avium; test: MIC, micro broth dilution with resazurin readout; conditions: read-out: Minimum Inhibitory Concentration (MIC)
[2] = system: Mycobacterium abscessus; test: MIC, micro broth dilution with resazurin readout; conditions: Mycobacteroides abscessus, read-out: Minimum Inhibitory Concentration (MIC)
[3] = system: Mycobacterium kansasii; test: MIC, micro broth dilution with resazurin readout; conditions: read-out: Minimum Inhibitory Concentration (MIC)
[4] = system: Mycobacterium intracellulare; test: MIC, micro broth dilution with resazurin readout; conditions: MH Culture Medium, read-out: Minimum Inhibitory Concentration (MIC)
[5] = system: Mycobacterium massiliense; test: MIC, micro broth dilution with resazurin readout; conditions: Mycobacteroides abscessus, MH Culture Medium, read-out: Minimum Inhibitory Concentration (MIC)
[6] = system: Mycobacterium fortuitum; test: MIC, micro broth dilution with resazurin readout; conditions: Mycolicibacterium fortuitum, MH Culture Medium, read-out: Minimum Inhibitory Concentration (MIC)
[7] = system: Mycodacterium chelonei; test: MIC, micro broth dilution with resazurin readout; conditions: MH Culture Medium; Chelonei (standard strain); read-out: Minimum Inhibitory Concentration (MIC)
[8] = system: Mycobacterium avium; test: MBC, plating of MIC wells and CFU count; conditions: read-out: Minimum Bactericidal Concentration (MBC)
[9] = system: Mycobacterium abscessus; test: MBC, plating of MIC wells and CFU count; conditions: Mycobacteroides abscessus, read-out: Minimum Bactericidal Concentration (MBC)
[10] = system: Mycobacterium kansasii; test: MBC, plating of MIC wells and CFU count; conditions: read-out: Minimum Bactericidal Concentration (MBC)
[11] = 7H9 Broth, Mycobacterium avium Smooth
[12] = MH Broth, Mycobacterium avium Smooth
[13] = MH Culture Medium, Avium (standard strain)
[14] = MH Culture Medium, clinically isolated strain Avium (S31)
[15] = MH Culture Medium, clinically isolated strain Avium (S123)
[16] = MH Culture Medium, clinically isolated strain Avium (S559)
[17] = MH Culture Medium, clinically isolated strain Avium (S568)
[18] = MH Culture Medium, clinically isolated strain Avium (S577)
[19] = MH Culture Medium, clinically isolated strain Avium (S597)
[20] = MH Culture Medium, clinically isolated strain Avium (S602)
[21] = MH Culture Medium, Kansasii (standard strain)
[22] = MH Culture Medium, clinically isolated strain Kansasii (S9)
[23] = MH Culture Medium, clinically isolated strain Kansasii (S199)
[24] = MH Culture Medium, clinically isolated strain Kansasii (S520)
[25] = MH Culture Medium, clinically isolated strain Kansasii (S609)
[26] = Intracellulare (standard strain)
[27] = clinically isolated strain Intracellulare (S90)
[28] = clinically isolated strain Intracellulare (S261)
[29] = clinically isolated strain Intracellulare (S269)
[30] = clinically isolated strain Intracellulare (S290)
[31] = clinically isolated strain Intracellulare (S291)
[32] = clinically isolated strain Intracellulare (S298)
[33] = clinically isolated strain Intracellulare (S442)
[34] = clinically isolated strain Intracellulare (S541)
[35] = clinically isolated strain Intracellulare (S623)
[36] = clinically isolated strain Intracellulare (ZPS)
[37] = clinically isolated strain Massiliense (D10)
[38] = clinically isolated strain Massiliense (D14)
[39] = clinically isolated strain Massiliense (D18)
[40] = clinically isolated strain Fortuitum (S103)
[41] = clinically isolated strain Fortuitum (S111)
[42] = 7H9 Broth, Mycobacterium avium Rough

Cc1ncc([N+](=O)[O-])n1CCO [Metronidazole]
MIC [1, 11]: > 64 µg/mL | MIC [1, 12]: > 64 µg/mL | MIC [1, 13]: 8 µg/mL (≈ 46.7 µM) | MIC [1, 14]: 16 µg/mL (≈ 93.5 µM) | MIC [1, 15]: 8 µg/mL (≈ 46.7 µM) | MIC [1, 16]: 8 µg/mL (≈ 46.7 µM) | MIC [1, 17]: 8 µg/mL (≈ 46.7 µM) | MIC [1, 18]: 8 µg/mL (≈ 46.7 µM) | MIC [1, 19]: 8 µg/mL (≈ 46.7 µM) | MIC [1, 20]: 32 µg/mL (≈ 187 µM) | MIC ([2]; 7H9 Broth): > 64 µg/mL | MIC ([2]; MH Broth): > 64 µg/mL | MIC ([3]; 7H9 Broth): > 64 µg/mL | MIC ([3]; MH Broth): > 64 µg/mL | MIC [3, 21]: 8 µg/mL (≈ 46.7 µM) | MIC [3, 22]: 8 µg/mL (≈ 46.7 µM) | MIC [3, 23]: 8 µg/mL (≈ 46.7 µM) | MIC [3, 24]: 8 µg/mL (≈ 46.7 µM) | MIC [3, 25]: 8 µg/mL (≈ 46.7 µM) | MIC [4, 26]: 8 µg/mL (≈ 46.7 µM) | MIC [4, 27]: 16 µg/mL (≈ 93.5 µM) | MIC [4, 28]: 16 µg/mL (≈ 93.5 µM) | MIC [4, 29]: 16 µg/mL (≈ 93.5 µM) | MIC [4, 30]: 8 µg/mL (≈ 46.7 µM) | MIC [4, 31]: 8 µg/mL (≈ 46.7 µM) | MIC [4, 32]: 16 µg/mL (≈ 93.5 µM) | MIC [4, 33]: 8 µg/mL (≈ 46.7 µM) | MIC [4, 34]: 16 µg/mL (≈ 93.5 µM) | MIC [4, 35]: 8 µg/mL (≈ 46.7 µM) | MIC [4, 36]: 8 µg/mL (≈ 46.7 µM) | MIC [5, 37]: 16 µg/mL (≈ 93.5 µM) | MIC [5, 38]: 16 µg/mL (≈ 93.5 µM) | MIC [5, 39]: 8 µg/mL (≈ 46.7 µM) | MIC ([6]; Fortuitum (standard strain)): 16 µg/mL (≈ 93.5 µM) | MIC [6, 40]: 8 µg/mL (≈ 46.7 µM) | MIC [6, 41]: 16 µg/mL (≈ 93.5 µM) | MIC [7]: 16 µg/mL (≈ 93.5 µM) | MBC [8, 11]: > 64 µg/mL | MBC [8, 12]: > 64 µg/mL | MBC ([9]; 7H9 Broth): > 64 µg/mL | MBC ([9]; MH Broth): > 64 µg/mL | MBC ([10]; 7H9 Broth): > 64 µg/mL | MBC ([10]; MH Broth): > 64 µg/mL

CO[C@H]1/C=C/O[C@@]2(C)Oc3c(C)c(O)c4c(O)c(c(/C=N/N5CCN(C)CC5)c(O)c4c3C2=O)NC(=O)/C(C)=C\C=C\[C@H](C)[C@H](O)[C@@H](C)[C@@H](O)[C@@H](C)[C@H](OC(C)=O)[C@@H]1C [Rifampicin]
MIC [1, 42]: 8 µg/mL (≈ 9.72 µM) | MIC [1, 11]: 0.5 µg/mL (≈ 0.608 µM) | MIC ([1]; MH Broth, Mycobacterium avium Rough): 8 µg/mL (≈ 9.72 µM) | MIC [1, 12]: 1 µg/mL (≈ 1.22 µM) | MIC [1, 13]: 0.25 µg/mL (≈ 0.304 µM) | MIC [1, 14]: 0.0625 µg/mL (≈ 0.0759 µM) | MIC [1, 15]: 8 µg/mL (≈ 9.72 µM) | MIC [1, 16]: 0.125 µg/mL (≈ 0.152 µM) | MIC [1, 17]: 4 µg/mL (≈ 4.86 µM) | MIC [1, 18]: 0.125 µg/mL (≈ 0.152 µM) | MIC [1, 19]: 8 µg/mL (≈ 9.72 µM) | MIC [1, 20]: 2 µg/mL (≈ 2.43 µM) | MIC ([2]; 7H9 Broth): > 64 µg/mL | MIC ([2]; MH Broth): > 64 µg/mL | MIC ([3]; 7H9 Broth): 16 µg/mL (≈ 19.4 µM) | MIC ([3]; MH Broth): 16 µg/mL (≈ 19.4 µM) | MIC [3, 21]: 0.125 µg/mL (≈ 0.152 µM) | MIC [3, 22]: 0.125 µg/mL (≈ 0.152 µM) | MIC [3, 23]: 0.0625 µg/mL (≈ 0.0759 µM) | MIC [3, 24]: 0.0625 µg/mL (≈ 0.0759 µM) | MIC [3, 25]: 0.0625 µg/mL (≈ 0.0759 µM) | MIC [4, 26]: 0.25 µg/mL (≈ 0.304 µM) | MIC [4, 27]: 8 µg/mL (≈ 9.72 µM) | MIC [4, 28]: 16 µg/mL (≈ 19.4 µM) | MIC [4, 29]: 4 µg/mL (≈ 4.86 µM) | MIC [4, 30]: 4 µg/mL (≈ 4.86 µM) | MIC [4, 31]: 4 µg/mL (≈ 4.86 µM) | MIC [4, 32]: 4 µg/mL (≈ 4.86 µM) | MIC [4, 33]: 2 µg/mL (≈ 2.43 µM) | MIC [4, 34]: 16 µg/mL (≈ 19.4 µM) | MIC [4, 35]: 8 µg/mL (≈ 9.72 µM) | MIC [4, 36]: 2 µg/mL (≈ 2.43 µM) | MIC [5, 37]: > 64 µg/mL | MIC [5, 38]: > 64 µg/mL | MIC [5, 39]: > 64 µg/mL | MIC ([6]; Fortuitum (standard strain)): > 64 µg/mL | MIC [6, 40]: > 64 µg/mL | MIC [6, 41]: 64 µg/mL (≈ 77.8 µM) | MIC [7]: > 64 µg/mL | MBC [8, 42]: > 64 µg/mL | MBC [8, 11]: 4 µg/mL (≈ 4.86 µM) | MBC [8, 12]: 4 µg/mL (≈ 4.86 µM) | MBC ([9]; 7H9 Broth): > 64 µg/mL | MBC ([9]; MH Broth): > 64 µg/mL | MBC ([10]; 7H9 Broth): 4 µg/mL (≈ 4.86 µM) | MBC ([10]; MH Broth): 4 µg/mL (≈ 4.86 µM)
